# Measurements taken from US20100016232A1, “Treatment Of Inflammatory Diseases With Mammal Beta Defensins” (Novozymes A/S, priority 2008, published 2010).
# Marks after values point to notes of the source that are not given here.
# Legend:
# Type in all cases: in vivo
# [1] = tested on: DSS-induced colitis in the mouse; assay: 10-day DSS-induced colitis, colon histological score (Example 6)
# Protocol: (§1) Two sections (proximal and distal) of colon were taken from each animal and preserved in neutral buffered formalin for subsequent histological analysis (haematoxylin and eosin staining) according to the following scoring system:
# (§2) Example 6 was carried out essentially as described in Example 5. The differences are indicated below.
# (§3) Animals were divided into 9 experimental groups.
# Two sections (proximal and distal) of colon were taken from each animal, processed for histological analysis (haematoxylin and eosin staining), and scored by a blind observer according to the scoring system described above.
# [2] = tested on: DSS-induced colitis in the mouse; assay: 10-day DSS-induced colitis, Disease Activity Index (Example 6); design: key: clinical Disease Activity Index (stool, bleeding, weight loss)
# Protocol: (§4) Daily clinical assessment of DSS-treated animals was carried out, with the calculation of a validated clinical Disease Activity Index (DAI) ranging from 0 to 4 according to the following parameters: stool consistency, presence or absence of rectal bleeding and weight loss:
# as §2, §3
# The animals in group F received one dose i.v. and another dose s.c. (12 hours after the i.v. dose) of the corresponding test item for 10 consecutive days.
# The animals in group G received one dose every two days of the corresponding test item for 10 consecutive days.
# Methylprednisolone was given orally at a dose of 1 mg/kg (group H) and 10 mg/kg (group J) in a dosing volume of 5 ml/kg body weight, once daily for 10 consecutive days.
# [3] = tested on: DSS-induced colitis in the mouse; assay: 10-day DSS-induced colitis, colon histological score (Example 5); settings: 1 mg/kg p.o. daily, day 10
# Description: (§5) Animals were divided into 5 experimental groups.
# Their colons were removed and their length and weight measured after exclusion of the caecum.
# as §1
# Two sections (proximal and distal) of colon were taken from each animal, processed for histological analysis (haematoxylin and eosin staining) and scored by a blind observer according to the histological scoring system described above.
# [4] = tested on: DSS-induced colitis in the mouse; assay: 10-day DSS-induced colitis, Disease Activity Index (Example 5); settings: 1 mg/kg p.o. daily
# Protocol: as §5
# Colitis was induced in mice by supplementing their drinking water with DSS 2% for 7 days.
# as §4
# Bodyweight loss was calculated as the percent difference between the original bodyweight (Day 1) and the actual bodyweight on each experimental day (2-10).
# The appearance of diarrhoea is defined as mucus/faecal material adherent to anal fur. Rectal bleeding is defined as diarrhoea containing visible blood/mucus or gross rectal bleeding. The maximum score of the DAI each day is 12.
structure (smiles),measurement,setting,value
"C[C@H]1C[C@@H]2[C@H]([C@@H](O)C[C@@]3(C)[C@H]2CC[C@]3(O)C(=O)COC(=O)CCC(=O)O)[C@@]2(C)C=CC(=O)C=C12 [Methylprednisolone 21-hemisuccinate, reference compound]","Histology Score Distal Colon, mean","[1]; Group H, 1 mg/kg p.o.",3.00***
same,"Histology Score Proximal Colon, mean","[1]; Group H, 1 mg/kg p.o.",1.40
same,"Histology Score Distal Colon, mean","[1]; Group J, 10 mg/kg p.o.",2.70***
same,"Histology Score Proximal Colon, mean","[1]; Group J, 10 mg/kg p.o.",1.40
same,"DAI score, mean","[2]; Group H, 1 mg/kg p.o., Day 1",0.00
same,"DAI score, mean","[2]; Group H, 1 mg/kg p.o., Day 2",0.50
same,"DAI score, mean","[2]; Group H, 1 mg/kg p.o., Day 3",0.50
same,"DAI score, mean","[2]; Group H, 1 mg/kg p.o., Day 4",0.40
same,"DAI score, mean","[2]; Group H, 1 mg/kg p.o., Day 5",1.10
same,"DAI score, mean","[2]; Group H, 1 mg/kg p.o., Day 6",3.80
same,"DAI score, mean","[2]; Group H, 1 mg/kg p.o., Day 7",5.90
same,"DAI score, mean","[2]; Group H, 1 mg/kg p.o., Day 8",6.40
same,"DAI score, mean","[2]; Group H, 1 mg/kg p.o., Day 9",5.60*
same,"DAI score, mean","[2]; Group H, 1 mg/kg p.o., Day 10",5.60*
same,"DAI score, mean","[2]; Group J, 10 mg/kg p.o., Day 1",0.00
same,"DAI score, mean","[2]; Group J, 10 mg/kg p.o., Day 2",0.30
same,"DAI score, mean","[2]; Group J, 10 mg/kg p.o., Day 3",0.70
same,"DAI score, mean","[2]; Group J, 10 mg/kg p.o., Day 4",0.80
same,"DAI score, mean","[2]; Group J, 10 mg/kg p.o., Day 5",1.30
same,"DAI score, mean","[2]; Group J, 10 mg/kg p.o., Day 6",2.00
same,"DAI score, mean","[2]; Group J, 10 mg/kg p.o., Day 7",3.20**
same,"DAI score, mean","[2]; Group J, 10 mg/kg p.o., Day 8",4.80**
same,"DAI score, mean","[2]; Group J, 10 mg/kg p.o., Day 9",5.20*
same,"DAI score, mean","[2]; Group J, 10 mg/kg p.o., Day 10",4.00***
same,Histology Score Distal Colon,[3],3.70
same,Histology Score Proximal Colon,[3],2.80*
same,Histology Score Proximal Colon,[3]; listed as prednisolone,2.8±0.5
same,DAI score,[4]; Day 1,0.00
same,DAI score,[4]; Day 2,0.10
same,DAI score,[4]; Day 3,0.00
same,DAI score,[4]; Day 4,2.60
same,DAI score,[4]; Day 5,2.50
same,DAI score,[4]; Day 6,2.60
same,DAI score,[4]; Day 7,3.10
same,DAI score,[4]; Day 8,2.50*
same,DAI score,[4]; Day 9,3.80*
same,DAI score,[4]; Day 10,4.90**
